The numbers were not newly measured in patent US20140100272A1, “METHODS OF ADMINISTERING COMPOSITIONS COMPRISING DOCOSAPENTAENOIC ACID” (Matinas BioPharma, Inc., priority 2012, published 2014), which cites them from elsewhere.

The conditions of this data set: in vivo.

For `CC[C@H](C)C(=O)O[C@H]1C[C@@H](C)C=C2C=C[C@H](C)[C@H](CC[C@@H]3C[C@@H](O)CC(=O)O3)[C@H]21` [lovastatin], the absorbed at rates entry was “about 30%”.
